CC1(C)[C@@H](O)CC[C@]2(C)[C@H]3C(=O)C=C4[C@@H]5C[C@@](C)(C(=O)O)CC[C@]5(C)CC[C@@]4(C)[C@]3(C)CC[C@@H]12
solubility (mole fraction) (in 1,4-dioxane, 288.15 K): 0.0269
solubility (mole fraction) (in 1,4-dioxane, 293.15 K): 0.028
solubility (mole fraction) (in 1,4-dioxane, 298.15 K): 0.0297
solubility (mole fraction) (in 1,4-dioxane, 303.15 K): 0.0315
solubility (mole fraction) (in 1,4-dioxane, 308.15 K): 0.0327
solubility (mole fraction) (in 1,4-dioxane, 313.15 K): 0.0337
solubility (mole fraction) (in 1,4-dioxane, 318.15 K): 0.0349
solubility (mole fraction) (in 1,4-dioxane, 323.15 K): 0.036
solubility (mole fraction) (in DMF, 278.15 K): 0.0467
solubility (mole fraction) (in DMF, 283.15 K): 0.0474
solubility (mole fraction) (in DMF, 288.15 K): 0.0515
solubility (mole fraction) (in DMF, 293.15 K): 0.0552
solubility (mole fraction) (in DMF, 298.15 K): 0.0576
solubility (mole fraction) (in DMF, 303.15 K): 0.0598
solubility (mole fraction) (in DMF, 308.15 K): 0.0643
solubility (mole fraction) (in DMF, 313.15 K): 0.0678
solubility (mole fraction) (in DMF, 318.15 K): 0.0716
solubility (mole fraction) (in DMF, 323.15 K): 0.0763
solubility (mole fraction) (in THF, 278.15 K): 0.0764
solubility (mole fraction) (in THF, 283.15 K): 0.077
solubility (mole fraction) (in THF, 288.15 K): 0.0774
solubility (mole fraction) (in THF, 293.15 K): 0.078
solubility (mole fraction) (in THF, 298.15 K): 0.0787
solubility (mole fraction) (in THF, 303.15 K): 0.0794
solubility (mole fraction) (in THF, 308.15 K): 0.0804
solubility (mole fraction) (in THF, 313.15 K): 0.0815
solubility (mole fraction) (in THF, 318.15 K): 0.0827
solubility (mole fraction) (in THF, 323.15 K): 0.0842
solubility (mole fraction) (in acetone, 278.15 K): 0.00321
solubility (mole fraction) (in acetone, 283.15 K): 0.00347
solubility (mole fraction) (in acetone, 288.65 K): 0.00365
solubility (mole fraction) (in acetone, 293.15 K): 0.0038
solubility (mole fraction) (in acetone, 298.15 K): 0.00414
solubility (mole fraction) (in acetone, 303.15 K): 0.00438
solubility (mole fraction) (in acetone, 308.15 K): 0.00468
solubility (mole fraction) (in acetone, 313.15 K): 0.00495
solubility (mole fraction) (in acetone, 318.15 K): 0.00543
solubility (mole fraction) (in acetone, 323.15 K): 0.00598
solubility (mole fraction) (in ethanol, 278.15 K): 0.0106
solubility (mole fraction) (in ethanol, 283.15 K): 0.0112
solubility (mole fraction) (in ethanol, 288.65 K): 0.0125
solubility (mole fraction) (in ethanol, 293.15 K): 0.0132
solubility (mole fraction) (in ethanol, 298.15 K): 0.0138
solubility (mole fraction) (in ethanol, 303.15 K): 0.0143
solubility (mole fraction) (in ethanol, 308.15 K): 0.0148
solubility (mole fraction) (in ethanol, 313.15 K): 0.0152
solubility (mole fraction) (in ethanol, 318.15 K): 0.0158
solubility (mole fraction) (in ethanol, 323.15 K): 0.0168
solubility (mole fraction) (in isobutyl acetate, 278.15 K): 0.00229
solubility (mole fraction) (in isobutyl acetate, 283.15 K): 0.00232
solubility (mole fraction) (in isobutyl acetate, 288.15 K): 0.00239
solubility (mole fraction) (in isobutyl acetate, 293.15 K): 0.00242
solubility (mole fraction) (in isobutyl acetate, 298.15 K): 0.00247
solubility (mole fraction) (in isobutyl acetate, 303.15 K): 0.00256
solubility (mole fraction) (in isobutyl acetate, 308.15 K): 0.00273
solubility (mole fraction) (in isobutyl acetate, 313.15 K): 0.00278
solubility (mole fraction) (in isobutyl acetate, 318.15 K): 0.00288
solubility (mole fraction) (in isobutyl acetate, 323.15 K): 0.00314
solubility (mole fraction) (in isopropanol, 278.15 K): 0.00857
solubility (mole fraction) (in isopropanol, 283.15 K): 0.00946
solubility (mole fraction) (in isopropanol, 288.65 K): 0.0114
solubility (mole fraction) (in isopropanol, 293.15 K): 0.012
solubility (mole fraction) (in isopropanol, 298.15 K): 0.0129
solubility (mole fraction) (in isopropanol, 303.15 K): 0.0139
solubility (mole fraction) (in isopropanol, 308.15 K): 0.0149
solubility (mole fraction) (in isopropanol, 313.15 K): 0.0156
solubility (mole fraction) (in isopropanol, 318.15 K): 0.0164
solubility (mole fraction) (in isopropanol, 323.15 K): 0.0174
solubility (mole fraction) (in methanol, 278.15 K): 0.00229
solubility (mole fraction) (in methanol, 283.15 K): 0.00257
solubility (mole fraction) (in methanol, 288.65 K): 0.00295
solubility (mole fraction) (in methanol, 293.15 K): 0.00329
solubility (mole fraction) (in methanol, 298.15 K): 0.00373
solubility (mole fraction) (in methanol, 303.15 K): 0.00427
solubility (mole fraction) (in methanol, 308.15 K): 0.00486
solubility (mole fraction) (in methanol, 313.15 K): 0.00562
solubility (mole fraction) (in methanol, 318.15 K): 0.00675
solubility (mole fraction) (in methanol, 323.15 K): 0.00755
solubility (mole fraction) (in methyl acetate, 278.15 K): 0.00182
solubility (mole fraction) (in methyl acetate, 283.15 K): 0.00196
solubility (mole fraction) (in methyl acetate, 288.15 K): 0.00203
solubility (mole fraction) (in methyl acetate, 293.15 K): 0.00227
solubility (mole fraction) (in methyl acetate, 298.15 K): 0.00244
solubility (mole fraction) (in methyl acetate, 303.15 K): 0.00259
solubility (mole fraction) (in methyl acetate, 308.15 K): 0.0027
solubility (mole fraction) (in methyl acetate, 313.15 K): 0.00293
solubility (mole fraction) (in methyl acetate, 318.15 K): 0.00319
solubility (mole fraction) (in methyl acetate, 323.15 K): 0.0034
solubility (mole fraction) (in n-butyl acetate, 278.15 K): 0.00286
solubility (mole fraction) (in n-butyl acetate, 283.15 K): 0.00297
solubility (mole fraction) (in n-butyl acetate, 288.15 K): 0.00315
solubility (mole fraction) (in n-butyl acetate, 293.15 K): 0.00327
solubility (mole fraction) (in n-butyl acetate, 298.15 K): 0.00333
solubility (mole fraction) (in n-butyl acetate, 303.15 K): 0.00344
solubility (mole fraction) (in n-butyl acetate, 308.15 K): 0.0035
solubility (mole fraction) (in n-butyl acetate, 313.15 K): 0.00354
solubility (mole fraction) (in n-butyl acetate, 318.15 K): 0.00359
solubility (mole fraction) (in n-butyl acetate, 323.15 K): 0.00364
solubility (mole fraction) (in n-propanol, 278.15 K): 0.0131
solubility (mole fraction) (in n-propanol, 283.15 K): 0.0146
solubility (mole fraction) (in n-propanol, 288.65 K): 0.016
solubility (mole fraction) (in n-propanol, 293.15 K): 0.0174
solubility (mole fraction) (in n-propanol, 298.15 K): 0.0186
solubility (mole fraction) (in n-propanol, 303.15 K): 0.0194
solubility (mole fraction) (in n-propanol, 308.15 K): 0.0206
solubility (mole fraction) (in n-propanol, 313.15 K): 0.0218
solubility (mole fraction) (in n-propanol, 318.15 K): 0.0223
solubility (mole fraction) (in n-propanol, 323.15 K): 0.023
solubility (mole fraction) (in n-propyl acetate, 278.15 K): 0.00157
solubility (mole fraction) (in n-propyl acetate, 283.15 K): 0.00176
solubility (mole fraction) (in n-propyl acetate, 288.15 K): 0.00193
solubility (mole fraction) (in n-propyl acetate, 293.15 K): 0.00211
solubility (mole fraction) (in n-propyl acetate, 298.15 K): 0.00232
solubility (mole fraction) (in n-propyl acetate, 303.15 K): 0.00245
solubility (mole fraction) (in n-propyl acetate, 308.15 K): 0.00261
solubility (mole fraction) (in n-propyl acetate, 313.15 K): 0.00273
solubility (mole fraction) (in n-propyl acetate, 318.15 K): 0.00284
solubility (mole fraction) (in n-propyl acetate, 323.15 K): 0.00295

From BigSolDB 2.1
